The test system of one series is venous malformation. Nature of the series: Electrosclerotherapy case, Example 2 (patient, photographs, 3 years follow-up).
Series [1] has as its system symptomatic venous malformation of the left thigh. Nature of the series: Electrosclerotherapy case, Example 1 (patient, MRI follow-up). The settings on record: 1.5 mg bleomycin. Format: in vivo, human. On the procedure: FIGS. 1A and 1C show magnetic resonance of a symptomatic venous malformation of the left thigh in a patient previously treated with surgery and sclerotherapy;
FIGS. 1B and 1D show magnetic resonance of the symptomatic venous malformation of FIG. 1A three months after one electrosclerotherapy session.
A patient with a symptomatic venous malformation of the left thigh, causing swelling, pain, and partial immobility, recurring after surgery and sclerotherapy with Aethoxysklerol was treated with electrosclerotherapy using custom geometry electrodes and 1.5 mg bleomycin. […] Volume of the lesion before treatment: 26.79 cm^3; volume of the lesion after treatment: 0.00 cm^3.

For series [2], the system named is venous malformations that did not respond to previous invasive therapies. The note with it: 17 patients, cited from earlier work.

For the compound `CCO` [ethanol], the outcome of sclerotherapy in the series with venous malformation (7 sessions of ethanol sclerotherapy, without electric pulses) is given as “unsuccessfully treated”.
As to bleomycin, the “magnetic resonance imaging outcome of the malformation” value in series [1] (custom geometry electrodes, 3 months after one session of electrosclerotherapy) is reported as “complete resolution of the malformation”. Moreover, in series [1] (one electrosclerotherapy session), the adverse events entry is “No documented adverse events”. The “volume of the lesion after treatment” value in series [1] (one electrosclerotherapy session, volume before treatment 26.79 cm^3) came out at 0.00 cm^3. The clinical improvement entry in series [2] (after an average of 3.7 months and 1.12 sessions per patient) was “clinical improvement in all patients”. Moreover, the “decrease in lesion volume on magnetic resonance imaging (average)” value in series [2] (bleomycin in combination with reversible electroporation, average 3.7 months and 1.12 sessions per patient) was 86%. Besides, the functionality of nerves result with venous malformation (2 sessions of electrosclerotherapy, finger electrode, 2 mg of Bleomycin per session, 3 years follow-up) is “Functionality of nerves is preserved”.

These data come from patent US20250152936A1, “METHOD FOR THE TREATMENT OF VASCULAR ANOMALIES BY ADMINISTERING ONE OR MORE SCLEROSING AGENTS AND APPLYING A SERIES OF ELECTRIC PULSES” (IGEA S.P.A., priority 2023, published 2025).
